Reference: patent US20260355196A1, “INHIBITORS AND DEGRADERS OF PIP4K PROTEIN” (Larkspur Biosciences, Inc., priority 2023, published 2026)

Biological target: T1, PIP4K2C (Homo sapiens, UniProt Q8TBX8)
T1 sequence (Q8TBX8 1-421): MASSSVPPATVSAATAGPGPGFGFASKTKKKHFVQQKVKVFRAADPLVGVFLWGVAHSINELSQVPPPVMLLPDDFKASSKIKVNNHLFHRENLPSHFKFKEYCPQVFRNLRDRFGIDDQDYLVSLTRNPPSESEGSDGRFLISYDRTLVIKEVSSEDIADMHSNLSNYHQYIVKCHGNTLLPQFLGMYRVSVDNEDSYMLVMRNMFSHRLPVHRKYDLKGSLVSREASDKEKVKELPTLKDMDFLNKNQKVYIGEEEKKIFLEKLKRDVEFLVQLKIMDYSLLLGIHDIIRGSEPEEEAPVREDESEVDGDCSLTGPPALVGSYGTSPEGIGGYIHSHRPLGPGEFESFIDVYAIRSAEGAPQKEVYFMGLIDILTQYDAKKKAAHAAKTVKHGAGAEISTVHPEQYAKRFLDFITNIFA
Experiment: HiBiT PIP4K2C degradation assay in MOLT-4 cells (endogenous PIP4K2C C-terminally tagged with HiBiT)
Format: cell-based
Design: untagged in primary human PBMCs and monocyte-derived dendritic cells
Conditions: 6 hours of incubation time, rather than 24 hours; MOLT-4, top concentration 10 micromolar; read-out: HiBIT-degradation MOLT4 PIP4k2C DC50 (6 hours, marked *)
Summary of the method: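 In a CRISPR-engineered MOLT-4 clone carrying HiBiT-tagged PIP4K2C, degradation was assessed after 24 or 6 hours of dosing (10 micromolar top, 3-fold steps). Luminescence from lytic HiBiT detection was fitted to obtain DC50.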

DC50, < 500 nM:
O=C1CCC(Nc2ccc(N3CCC(N4CCC(C(=O)N[C@H]5CC[C@H](Nc6ncc(F)c(-c7cccc(N8CCCOC8=O)c7)n6)CC5)CC4)CC3)c(F)c2)C(=O)N1 (stereo partly drawn) [Compound 597, trans-1′-(4-((2,6-dioxopiperidin-3-yl)amino)-2-fluorophenyl)-N-(4-((5-fluoro-4-(3-(2-oxo-1,3-oxazinan-3-yl)phenyl)pyrimidin-2-yl)amino)cyclohexyl)-[1,4′-bipiperidine]-4-carboxamide]
O=C1CCC(Nc2ccc(N3CCC(N4CCC(C(=O)N[C@H]5CC[C@H](Nc6ncc(F)c(-c7cccc(-n8ccccc8=O)c7)n6)CC5)CC4)C(F)(F)C3)c(F)c2)C(=O)N1 (stereo partly drawn) [Compound 598, trans-1′-(4-((2,6-dioxopiperidin-3-yl)amino)-2-fluorophenyl)-3′,3′-difluoro-N-(4-((5-fluoro-4-(3-(2-oxopyridin-1(2H)-yl)phenyl)pyrimidin-2-yl)amino)cyclohexyl)-[1,4′-bipiperidine]-4-carboxamide]
O=C1CCC(Nc2ccc(N3CCC(N4CCC(C(=O)N[C@H]5CC[C@H](Nc6ncc(F)c(-c7cccc(-c8ccc[nH]c8=O)c7)n6)CC5)CC4)C(F)(F)C3)c(F)c2)C(=O)N1 (stereo partly drawn) [Compound 599, 1′-(4-((2,6-dioxopiperidin-3-yl)amino)-2-fluorophenyl)-3′,3′-difluoro-N-(trans-4-((5-fluoro-4-(3-(2-oxo-1,2-dihydropyridin-3-yl)phenyl)pyrimidin-2-yl)amino)cyclohexyl)-[1,4′-bipiperidine]-4-carboxamide]
O=C1CCC(Nc2ccc(N3CCN([C@H]4CC[C@H](C(=O)N[C@H]5CC[C@H](Nc6ncc(F)c(-c7cccc(-c8ccccc8)c7)n6)CC5)CC4)CC3)c(F)c2)C(=O)N1 (stereo partly drawn) [Compound 604, trans-(1r,4R)—N-((1r,4R)-4-((4-([1,1′-biphenyl]-3-yl)-5-fluoropyrimidin-2-yl)amino)cyclohexyl)-4-(4-(4-((2,6-dioxopiperidin-3-yl)amino)-2-fluorophenyl)piperazin-1-yl)cyclohexane-1-carboxamide]
O=C1CCC(Nc2ccc(N3CCN([C@H]4CC[C@H](C(=O)N[C@H]5CC[C@H](Nc6ncc(F)c(-c7cccc(N8CCOCC8)c7)n6)CC5)CC4)CC3)c(F)c2)C(=O)N1 (stereo partly drawn) [Compound 605, trans-(1r,4R)-4-(4-(4-((2,6-dioxopiperidin-3-yl)amino)-2-fluorophenyl)piperazin-1-yl)-N-((1r,4R)-4-((5-fluoro-4-(3-morpholinophenyl)pyrimidin-2-yl)amino)cyclohexyl)cyclohexane-1-carboxamide]
O=C1CCC(Nc2ccc(N3CCN([C@H]4CC[C@H](C(=O)N[C@H]5CC[C@H](Nc6ncc(Cl)c(-c7cccc(-n8ccccc8=O)c7)n6)CC5)CC4)CC3)c(F)c2)C(=O)N1 (stereo partly drawn) [Compound 632, trans-(1r,4R)—N-((1r,4R)-4-((5-chloro-4-(3-(2-oxopyridin-1 (2H)-yl)phenyl)pyrimidin-2-yl)amino)cyclohexyl)-4-(4-(4-((2,6-dioxopiperidin-3-yl)amino)-2-fluorophenyl)piperazin-1-yl)cyclohexane-1-carboxamide]
O=C1CCC(Nc2ccc(C3CCN(C4CC5(CC(OC(=O)N6CCC(Nc7ncc(F)c(-c8cccc(-n9ccccc9=O)c8)n7)CC6)C5)C4)CC3)c(F)c2)C(=O)N1 (centres unmarked) [Compound 633, 6-(4-(4-((2,6-dioxopiperidin-3-yl)amino)-2-fluorophenyl)piperidin-1-yl)spiro[3.3]heptan-2-yl 4-((5-fluoro-4-(3-(2-oxopyridin-1 (2H)-yl)phenyl)pyrimidin-2-yl)amino)piperidine-1-carboxylate]
Cn1nc(N2CCC(=O)NC2=O)c2ccc(C3CCN(CC4(O)CCN(C(=O)O[C@H]5CC[C@H](Nc6ncc(F)c(-c7cccc(-c8ccccc8)c7)n6)CC5)CC4)CC3)cc21 [Compound 635, trans-4-((4-([1,1′-biphenyl]-3-yl)-5-fluoropyrimidin-2-yl)amino)cyclohexyl 4-((4-(3-(2,4-dioxotetrahydropyrimidin-1 (2H)-yl)-1-methyl-1H-indazol-6-yl)piperidin-1-yl)methyl)-4-hydroxypiperidine-1-carboxylate]
Cn1nc(N2CCC(=O)NC2=O)c2ccc(C3CCN(CC4CCN(C(=O)O[C@H]5CC[C@H](Nc6ncc(F)c(-c7cccc(-c8ccccc8)c7)n6)CC5)CC4)CC3)cc21 [Compound 636, trans-4-((4-([1,1′-biphenyl]-3-yl)-5-fluoropyrimidin-2-yl)amino)cyclohexyl 4-((4-(3-(2,4-dioxotetrahydropyrimidin-1 (2H)-yl)-1-methyl-1H-indazol-6-yl)piperidin-1-yl)methyl)piperidine-1-carboxylate]
O=C1CCC(Nc2ccc(N3CCC(N4CC5(CC(OC(=O)N6CCC(Nc7ncc(F)c(-c8cccc(-n9ccccc9=O)c8)n7)CC6)C5)C4)CC3)c(F)c2)C(=O)N1 (centres unmarked) [Compound 637, 2-(1-(4-((2,6-dioxopiperidin-3-yl)amino)-2-fluorophenyl)piperidin-4-yl)-2-azaspiro[3.3]heptan-6-yl 4-((5-fluoro-4-(3-(2-oxopyridin-1 (2H)-yl)phenyl)pyrimidin-2-yl)amino)piperidine-1-carboxylate]
O=C1CCC(Nc2ccc(C3CCN(C[C@H]4CC[C@H](COC(=O)N5CCC(Nc6ncc(F)c(-c7cccc(-c8ccccc8)c7)n6)CC5)CC4)CC3)c(F)c2)C(=O)N1 (stereo partly drawn) [Compound 640, trans-(4-((4-(4-((2,6-dioxopiperidin-3-yl)amino)-2-fluorophenyl)piperidin-1-yl)methyl)cyclohexyl)methyl 4-((4-([1,1′-biphenyl]-3-yl)-5-fluoropyrimidin-2-yl)amino)piperidine-1-carboxylate]

Same assay, conditions: read-out: HiBIT-degradation MOLT4 PIP4k2C DC50 (6 hours, marked *); 6 hours of incubation time, rather than 24 hours; MOLT-4, top concentration 10 micromolar

DC50, < 500 nM:
Cn1nc(N2CCC(=O)NC2=O)c2ccc(N3CCN(CC4CCN(C(=O)O[C@H]5CC[C@H](Nc6ncc(F)c(-c7cccc(-c8ccccc8)c7)n6)CC5)CC4)CC3)cc21 [Compound 634, trans-4-((4-([1,1′-biphenyl]-3-yl)-5-fluoropyrimidin-2-yl)amino)cyclohexyl 4-((4-(3-(2,4-dioxotetrahydropyrimidin-1 (2H)-yl)-1-methyl-1H-indazol-6-yl)piperazin-1-yl)methyl)piperidine-1-carboxylate]
O=C1CCC(Nc2ccc(C3CCN(CCC4(O)CCN(C(=O)O[C@H]5CC[C@H](Nc6ncc(F)c(-c7cccc(-n8ccccc8=O)c7)n6)CC5)CC4)CC3)c(F)c2)C(=O)N1 (stereo partly drawn) [Compound 641, trans-4-((5-fluoro-4-(3-(2-oxopyridin-1 (2H)-yl)phenyl)pyrimidin-2-yl)amino)cyclohexyl 4-(2-(4-(4-((2,6-dioxopiperidin-3-yl)amino)-2-fluorophenyl)piperidin-1-yl)ethyl)-4-hydroxypiperidine-1-carboxylate]
Cn1nc(C2CCC(=O)NC2=O)c2ccc(N3CCN(CC4(O)CCN(C(=O)O[C@H]5CC[C@H](Nc6ncc(F)c(-c7cccc(-c8ccccc8)c7)n6)CC5)CC4)CC3)cc21 (stereo partly drawn) [Compound 642, trans-4-((4-([1,1′-biphenyl]-3-yl)-5-fluoropyrimidin-2-yl)amino)cyclohexyl 4-((4-(3-(2,6-dioxopiperidin-3-yl)-1-methyl-1H-indazol-6-yl)piperazin-1-yl)methyl)-4-hydroxypiperidine-1-carboxylate]
